Among the data in patent US8436004B2, “Bicycloaniline derivative” (MSD K.K., priority 2007, dated 2013) are IC50 and EC50 values, retold here.

The structures appear in SMILES notation. Where a name gives a salt, the structure may show the parent alone.

One assay deals with T1, Wee1 kinase (Homo sapiens, UniProt P30291).
T1 construct: made in house; host or cells: Sf9 insect cells (recombinant baculovirus)
Put plainly: Wee1 kinase-inhibitory effect (33P-ATP, Poly(Lys,Tyr) substrate, filter assay). The class given is biochemical. As to conditions: 10 μM ATP, 30° C., 30 minutes. An excerpt: Pharmacological Test 1 (Wee1 Kinase-Inhibitory Effect)
(1) Purification of Wee1 Kinase:
A cDNA of Wee1 kinase with […] (GST) fused at the amino terminal thereof was inserted into a baculovirus expression vector to construct a recombinant baculovirus, with which cells of an insect cell line Sf9 were infected for high expression therein. The infected cells were recovered and solubilized, and then the GST-tagged Wee1 kinase protein was adsorbed by a glutathion column, and eluted from the column with glutathion, and the active fraction was desalted in a desalting column to give a purified enzyme.
(2) Determination of Wee1 Kinase Activity:
In determination of the Wee1 kinase activity, a synthetic peptide, Poly(Lys,Tyr) Hydrobromide (Lys:Tyr (4:1)) bought from Sigma was used as the substrate.
The amount of the reaction liquid was 21.1 μL; and the composition of the reaction buffer was 50 mM Tris-HCl buffer (pH 7.4)/10 mM magnesium chloride/1 mM dithiothreitol. The purified Wee1 kinase, 2.5 μg of the substrate peptide, 10 μM of non-labeled adenosine triphosphate (ATP) and 1 μCi of [γ-^33P]-labeled ATP (2500 Ci/mmol or more) were added to it, and reacted at 30° C. for 30 minutes. Next, 10 μL of 350 mM phosphate buffer was added to the reaction system to stop the reaction. The substrate peptide was adsorbed by a P81 paper filter 96-well plate, then washed a few times with 130 mM phosphate buffer, and its radioactivity was counted with a liquid scintillation counter. The [γ-^33P]-labeled ATP was bought from Amersham Bioscience.
To add the test compound to the reaction system, the compound was diluted with dimethylsulfoxide (DMSO) to prepare a series of dilutions. 1.1 μL of each dilution was added to the reaction system. As a control, 1.1 μL of DMSO was added to the reaction system.

Assay [1] deals with Cdc2 (Cdk1) tyrosine 15-phosphorylation in WiDr cells. Briefly: Cdc2 (Cdk1) tyrosine 15-phosphorylation-inhibitory effect in gemcitabine-treated WiDr cells (ELISA). The class given is cell-based. Particulars: Homo sapiens, gemcitabine 100 nM 24 hours, then test compound + nocodazole 8 hours, read-out: Cdc2-Y15 Phosphorylation-Inhibitory Effect (WiDr, + gemcitabine) (EC50). An excerpt:
Pharmacological Test 2 (Method of Determining Drug Potency with Cells (Cdc2 (Cdk1) Tyrosine 15-Phosphorylation-Inhibitory Effect))
Fetal bovine serum (FBS) was obtained from Morgate; media RPMI1640 and DMEM were from Invitrogen; camptothecin was from Sigma; gemcitabine was from Nippon Eli Lilly; nocodazole and protease inhibitor cocktail were from Sigma; rabbit anti-Cdc2 antibody and mouse anti-Cdc2 antibody were from Santa Cruz Biotechnology; rabbit anti-tyrosine 15-phosphorylated Cdc2 antibody and horseradish peroxidase-labeled anti-mouse IgG antibody were from Cell Signaling Technology; sure blue reserve TMB peroxidase substrate was from Kirkegaard and Perry Laboratories.
Human non-small cell lung cancer cells (NCI-H1299) and human colon cancer cells (WiDr) were obtained from American Type Culture Collection (ATCC).
In the method of using WiDr cells, the cells were suspended in a medium of 10% FBS-added DMEM, and the cell suspension was applied to a 96-well Nunclondelta-processed plastic plate in an amount of 2000 cells/100 μL/well, in which the cells were incubated overnight in 5% CO2-95% air at 37° C. […] Cdc2 was determined through ELISA as follows: A rabbit anti-Cdc2 antibody solution, which had been diluted 200-fold with 50 mM carbonate-bicarbonate buffer (pH 9.6), was applied to a 96-well maxisorp plastic plate in an amount of 50 μL/well, and statically kept overnight at 4° C. so as to fix the antibody on the plate. […] Then, 1 M hydrochloric acid was added to it in an amount of 100 μL/well to stop the reaction, and this was analyzed through colorimetry. Tyrosine 15-phosphorylated Cdc2 was determined through ELISA as follows: A rabbit anti-tyrosine 15-phosphorylated Cdc2 antibody solution, which had been diluted 100-fold with 50 mM carbonate-bicarbonate buffer (pH 9.6), was applied to a 96-well maxisorp plastic plate in an amount of 50 μL/well, and statically kept overnight at 4° C. so as to fix the antibody on the plate. […]

T1 sequence (P30291 whole entry): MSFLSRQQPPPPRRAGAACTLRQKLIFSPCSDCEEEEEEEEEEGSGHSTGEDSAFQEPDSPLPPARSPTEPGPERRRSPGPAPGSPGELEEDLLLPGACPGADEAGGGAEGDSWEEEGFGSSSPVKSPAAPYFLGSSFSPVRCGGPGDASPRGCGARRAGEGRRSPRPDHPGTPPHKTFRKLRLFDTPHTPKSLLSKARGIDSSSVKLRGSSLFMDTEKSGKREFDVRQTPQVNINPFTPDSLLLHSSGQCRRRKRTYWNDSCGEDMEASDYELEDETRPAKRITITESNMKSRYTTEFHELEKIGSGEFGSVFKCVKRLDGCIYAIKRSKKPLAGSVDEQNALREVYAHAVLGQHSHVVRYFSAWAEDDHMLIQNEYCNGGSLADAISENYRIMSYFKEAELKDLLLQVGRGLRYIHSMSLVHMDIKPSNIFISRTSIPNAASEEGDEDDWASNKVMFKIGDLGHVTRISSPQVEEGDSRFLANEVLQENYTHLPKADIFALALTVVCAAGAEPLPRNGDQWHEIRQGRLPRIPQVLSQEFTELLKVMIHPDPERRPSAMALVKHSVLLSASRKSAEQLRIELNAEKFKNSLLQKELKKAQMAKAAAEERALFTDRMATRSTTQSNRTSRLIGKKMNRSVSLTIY

`CN1Cc2cc(Nc3ncc4c(=N)n(-c5c(Cl)cccc5Cl)c(=O)[nH]c4n3)ccc2C2(CC2)C1` [Example 1, 3-(2,6-dichlorophenyl)-4-imino-7-[(2′-methyl-2′,3′-dihydro-1′H-spiro[cyclopropane-1,4′-isoquinolin]-7′-yl)amino]-3,4-dihydropyrimido[4,5-d]pyrimidin-2(1H)-one dihydrochloride]: the IC50 against Wee1 kinase was found to be 5 nM. The EC50 in assay [1] turned out to be 21 nM.
For `CN1Cc2cc(Nc3ncc4c(=N)n(-c5c(Cl)cccc5Cl)c(=O)[nH]c4n3)ccc2C1(C)C` [Example 7, 3-(2,6-dichlorophenyl)-4-imino-7-[(1,1,2-trimethyl-2,3-dihydro-1H-isoindol-5-yl)amino]-3,4-dihydropyrimido[4,5-d]pyrimidin-2(1H)-one] the same measures were 4.3 nM and 24 nM.
The corresponding values for `CN1Cc2cc(Nc3ncc4c(=N)n(-c5c(Cl)cccc5Cl)c(=O)[nH]c4n3)ccc2C(C)(C)C1` [Example 2, 3-(2,6-dichlorophenyl)-4-imino-7-{[2,4,4-trimethyl-1,2,3,4-tetrahydroisoquinolin-7-yl]amino}-3,4-dihydropyrimido[4,5-d]pyrimidin-2(1H)-one] are 5.6 nM and 46 nM.

By IC50 is commonly meant the midpoint of a concentration-inhibition curve. High values mean lower potency, low ones higher potency. A word on the EC50: it is the concentration giving half of the maximal effect.
